{
  "source": "patent US20240041042A1",
  "about": "“1-(PYRIDYL)-5-AZINYLPYRAZOLE DERIVATIVES, AND THEIR USE FOR CONTROL OF UNDESIRED PLANT GROWTH” (Bayer Aktiengesellschaft, priority 2020, published 2024)",
  "assay_type_in_all_cases": "in vivo",
  "key": {"[1]": {"tested_on": "Amaranthus retroflexus (AMARE)", "assay": "Pre-emergence herbicidal action against AMARE", "conditions": "visual scoring after about 3 weeks vs untreated controls", "method_in_brief": "(§1)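 Herbicide applied to soil before seedling emergence, at 600 l/ha spray volume with 0.5% additive and rates up to 320 g/ha. Evaluation: visual percentage effect, about 3 weeks later, greenhouse-grown pots compared with untreated ones.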"}, "[2]": {"tested_on": "Digitaria sanguinalis (DIGSA)", "assay": "Post-emergence herbicidal action against DIGSA", "conditions": "visual rating about 3 weeks after treatment", "method_in_brief": "(§2)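 Doses of 320 g/ha or lower, suffixes a, b and c marking different dosages, were applied post-emergence at the one-leaf stage in 600 l/ha water with 0.5% additive. Damage was assessed visually after about 3 weeks in the greenhouse.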"}, "[3]": {"tested_on": "Echinochloa crus-galli (ECHCG)", "assay": "Pre-emergence herbicidal action against ECHCG", "method_in_brief": "as §1"}, "[4]": {"tested_on": "Abutilon theophrasti (ABUTH)", "assay": "Post-emergence herbicidal action against ABUTH", "conditions": "320 g/ha, visual rating about 3 weeks after treatment vs untreated controls (100% = plants have died, 0% = like control plants)", "method_in_brief": "as §2"}, "[5]": {"tested_on": "Verconica persica (VERPE)", "assay": "Post-emergence herbicidal action against VERPE", "conditions": "320 g/ha, VERPE", "method_in_brief": "as §2"}, "Avena fatua (AVEFA) [6]": {"tested_on": "Avena fatua (AVEFA)", "assay": "Pre-emergence herbicidal action against AVEFA", "conditions": "320 g/ha, visual scoring after about 3 weeks vs untreated controls", "method_in_brief": "as §1"}, "[7]": {"tested_on": "Matricaria inodora (MATIN)", "assay": "Pre-emergence herbicidal action against MATIN", "method_in_brief": "as §1"}, "[8]": {"tested_on": "Verconica persica (VERPE)", "assay": "Pre-emergence herbicidal action against VERPE", "method_in_brief": "as §1"}, "Setaria viridis (SETVI) [9]": {"tested_on": "Setaria viridis (SETVI)", "assay": "Post-emergence herbicidal action against SETVI", "method_in_brief": "as §2"}, "Lolium rigidum (LOLRI) [10]": {"tested_on": "Lolium rigidum (LOLRI)", "assay": "Post-emergence herbicidal action against LOLRI", "method_in_brief": "as §2"}, "[11]": {"tested_on": "Alopecurus myosuroides (ALOMY)", "assay": "Pre-emergence herbicidal action against ALOMY", "conditions": "scored visually after about 3 weeks, 100% = plants have died", "method_in_brief": "as §1"}, "[12]": {"tested_on": "Digitaria sanguinalis (DIGSA)", "assay": "Pre-emergence herbicidal action against DIGSA", "method_in_brief": "as §1"}, "Setaria viridis (SETVI) [13]": {"tested_on": "Setaria viridis (SETVI)", "assay": "Pre-emergence herbicidal action against SETVI", "method_in_brief": "as §1"}, "[14]": {"tested_on": "Polygonum convolvulus (POLCO)", "assay": "Pre-emergence herbicidal action against POLCO", "method_in_brief": "as §1"}, "Viola tricolor (VIOTR) [15]": {"tested_on": "Viola tricolor (VIOTR)", "assay": "Pre-emergence herbicidal action against VIOTR", "method_in_brief": "as §1"}, "Lolium rigidum (LOLRI) [16]": {"tested_on": "Lolium rigidum (LOLRI)", "assay": "Pre-emergence herbicidal action against LOLRI", "method_in_brief": "as §1"}, "Zea mays (ZEAMX) [17]": {"tested_on": "Zea mays (ZEAMX)", "conditions": "crop plant compatibility, effect vs untreated controls", "method_in_brief": "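Foliar application at the one-leaf stage: WP/EC formulation, 0.5% additive, 600 l/ha water. Greenhouse-grown in sandy loam. Endpoint is visual % injury relative to untreated controls at about 3 weeks.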"}, "[18]": {"tested_on": "Pharbitis purpurea (PHBPU)", "assay": "Pre-emergence herbicidal action against PHBPU", "method_in_brief": "as §1"}, "[19]": {"tested_on": "Alopecurus myosuroides (ALOMY)", "assay": "Post-emergence herbicidal action against ALOMY", "conditions": "visual rating about 3 weeks after treatment vs untreated controls (100% = plants have died, 0% = like control plants)", "method_in_brief": "as §2"}, "[20]": {"tested_on": "Polygonum convolvulus (POLCO)", "assay": "Post-emergence herbicidal action against POLCO", "method_in_brief": "as §2"}, "Avena fatua (AVEFA) [21]": {"tested_on": "Avena fatua (AVEFA)", "assay": "Post-emergence herbicidal action against AVEFA", "conditions": "visual rating about 3 weeks after treatment", "method_in_brief": "as §2"}, "Zea mays (ZEAMX) [22]": {"tested_on": "Zea mays (ZEAMX)", "conditions": "pre-emergence, 80 g/ha, crop plant compatibility, in comparison to untreated controls", "method_in_brief": "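Scoring: visual, % of untreated control, about 3 weeks after a pre-emergence application to the soil surface. Application used WP or EC formulations diluted in water with 0.5% additive at 600 l/ha; dosage levels are marked by suffixes a, b and c.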"}, "[23]": {"tested_on": "Echinochloa crus-galli (ECHCG)", "assay": "Post-emergence herbicidal action against ECHCG", "conditions": "dosage 320 g/ha", "method_in_brief": "as §2"}, "Viola tricolor (VIOTR) [24]": {"tested_on": "Viola tricolor (VIOTR)", "assay": "Post-emergence herbicidal action against VIOTR", "conditions": "320 g/ha", "method_in_brief": "as §2"}, "[25]": {"tested_on": "Abutilon theophrasti (ABUTH)", "assay": "Pre-emergence herbicidal action against ABUTH", "conditions": "Dosage column 320 g/ha (title prints 3200 g/ha); scored visually after about 3 weeks; 100% = plants have died", "method_in_brief": "as §1"}},
  "note": "Like-named read-outs stand apart in the source and are kept apart here.",
  "data": [
    {"smiles": "C[C@@H](Oc1nn(-c2ncccc2F)c(-c2ccc(F)nc2)c1Br)C(=O)O", "note": "[Example I-10]", "values": [
      {"measurement": "Pre-emergence action against AMARE in %", "setting": "[1]; 80 g/ha", "result": 100, "unit": "%"},
      {"measurement": "Pre-emergence action against AMARE in %", "setting": "[1]; 320 g/ha", "result": 100, "unit": "%"},
      {"measurement": "Post-emergence action against DIGSA in %", "setting": "[2]; 80 g/ha", "result": 90, "unit": "%"},
      {"measurement": "Post-emergence action against DIGSA in %", "setting": "[2]; 320 g/ha", "result": 90, "unit": "%"},
      {"measurement": "Pre-emergence action against ECHCG in %", "setting": "[3]; dosage 80 g/ha", "result": 80, "unit": "%"},
      {"measurement": "Pre-emergence action against ECHCG in %", "setting": "[3]; dosage 320 g/ha", "result": 90, "unit": "%"},
      {"measurement": "Post-emergence action against ABUTH in %", "setting": "[4]", "result": 80, "unit": "%"},
      {"measurement": "Post-emergence action against VERPE in %", "setting": "[5]", "result": 80, "unit": "%"},
      {"measurement": "Pre-emergence action against AVEFA in %", "setting": "Avena fatua (AVEFA) [6]", "result": 100, "unit": "%"},
      {"measurement": "Pre-emergence action against MATIN in %", "setting": "[7]; dosage 80 g/ha", "result": 80, "unit": "%"},
      {"measurement": "Pre-emergence action against MATIN in %", "setting": "[7]; dosage 320 g/ha", "result": 100, "unit": "%"},
      {"measurement": "Pre-emergence action against VERPE in %", "setting": "[8]; dosage 80 g/ha", "result": 80, "unit": "%"},
      {"measurement": "Pre-emergence action against VERPE in %", "setting": "[8]; dosage 320 g/ha", "result": 100, "unit": "%"},
      {"measurement": "Post-emergence action against SETVI in %", "setting": "Setaria viridis (SETVI) [9]; dosage 80 g/ha", "result": 80, "unit": "%"},
      {"measurement": "Post-emergence action against SETVI in %", "setting": "Setaria viridis (SETVI) [9]; dosage 320 g/ha", "result": 80, "unit": "%"},
      {"measurement": "Post-emergence action against LOLRI in %", "setting": "Lolium rigidum (LOLRI) [10]; dosage 80 g/ha", "result": 90, "unit": "%"},
      {"measurement": "Post-emergence action against LOLRI in %", "setting": "Lolium rigidum (LOLRI) [10]; dosage 320 g/ha", "result": 90, "unit": "%"},
      {"measurement": "Pre-emergence action against ALOMY", "setting": "[11]; 80 g/ha", "result": 100, "unit": "%"},
      {"measurement": "Pre-emergence action against ALOMY", "setting": "[11]; 320 g/ha", "result": 100, "unit": "%"},
      {"measurement": "Pre-emergence action against DIGSA in %", "setting": "[12]; 80 g/ha, visual scoring after about 3 weeks vs untreated controls", "result": 100, "unit": "%"},
      {"measurement": "Pre-emergence action against DIGSA in %", "setting": "[12]; dosage 320 g/ha", "result": 100, "unit": "%"},
      {"measurement": "Pre-emergence action against SETVI in %", "setting": "Setaria viridis (SETVI) [13]; dosage 80 g/ha", "result": 100, "unit": "%"},
      {"measurement": "Pre-emergence action against SETVI in %", "setting": "Setaria viridis (SETVI) [13]; dosage 320 g/ha", "result": 100, "unit": "%"},
      {"measurement": "Pre-emergence action against POLCO in %", "setting": "[14]; dosage 80 g/ha", "result": 100, "unit": "%"},
      {"measurement": "Pre-emergence action against POLCO in %", "setting": "[14]; dosage 320 g/ha", "result": 100, "unit": "%"},
      {"measurement": "Pre-emergence action against VIOTR in %", "setting": "Viola tricolor (VIOTR) [15]; 320 g/ha, Viola tricolor", "result": 100, "unit": "%"},
      {"measurement": "Pre-emergence action against VIOTR in %", "setting": "Viola tricolor (VIOTR) [15]; dosage 80 g/ha", "result": 100, "unit": "%"},
      {"measurement": "Pre-emergence action against LOLRI in %", "setting": "Lolium rigidum (LOLRI) [16]; dosage 80 g/ha", "result": 100, "unit": "%"},
      {"measurement": "Pre-emergence action against LOLRI in %", "setting": "Lolium rigidum (LOLRI) [16]; dosage 320 g/ha", "result": 100, "unit": "%"},
      {"measurement": "Post-emergence action against ZEAMX in %", "setting": "Zea mays (ZEAMX) [17]; 80 g/ha", "result": 0, "unit": "%"},
      {"measurement": "Post-emergence action against ZEAMX in %", "setting": "Zea mays (ZEAMX) [17]; 320 g/ha", "result": 20, "unit": "%"},
      {"measurement": "Pre-emergence action against PHBPU in %", "setting": "[18]; dosage 80 g/ha", "result": 90, "unit": "%"},
      {"measurement": "Pre-emergence action against PHBPU in %", "setting": "[18]; dosage 320 g/ha", "result": 90, "unit": "%"},
      {"measurement": "Post-emergence action against ALOMY in %", "setting": "[19]; 80 g/ha", "result": 100, "unit": "%"},
      {"measurement": "Post-emergence action against ALOMY in %", "setting": "[19]; 320 g/ha", "result": 100, "unit": "%"},
      {"measurement": "Post-emergence action against POLCO in %", "setting": "[20]; dosage 80 g/ha", "result": 80, "unit": "%"},
      {"measurement": "Post-emergence action against POLCO in %", "setting": "[20]; dosage 320 g/ha", "result": 80, "unit": "%"},
      {"measurement": "Post-emergence action against AVEFA in %", "setting": "Avena fatua (AVEFA) [21]; 80 g/ha", "result": 80, "unit": "%"},
      {"measurement": "Post-emergence action against AVEFA in %", "setting": "Avena fatua (AVEFA) [21]; 320 g/ha", "result": 90, "unit": "%"},
      {"measurement": "Pre-emergence action against ZEAMX in %", "setting": "Zea mays (ZEAMX) [22]", "result": 20, "unit": "%"},
      {"measurement": "Post-emergence action against ECHCG in %", "setting": "[23]", "result": 80, "unit": "%"},
      {"measurement": "Post-emergence action against VIOTR in %", "setting": "Viola tricolor (VIOTR) [24]", "result": 80, "unit": "%"},
      {"measurement": "Pre-emergence action against ABUTH", "setting": "[25]", "result": 80, "unit": "%"}
    ]}
  ]
}
